The values that follow come from US20150125526A1 (Raptor Pharmaceuticals Inc., priority 2013, published 2015).

The subject of data set [1] is mice with the gene mutation for Huntington's disease. The settings on record: mouse, in vivo; cited from earlier work.
For data set [2], the system named is Sod2 null mice. The conditions noted are these: untreated Sod2 null mice die after approximately 1 week; cited from earlier work.
Data set [3] has as its system Sod2 null mice. Description: Administration of cysteamine bitartrate to Sod2 null mice: survival, weight gain, toxicity. The settings on record: cysteamine bitartrate 30 mg/kg, single dose. The class given is in vivo. The procedure:
Sod2 null mice provide a method for determining the efficacy in vivo of compounds having antioxidant properties, particularly those with mitochondrial efficacy. Without antioxidant efficacy, Sod2 null mice die after approximately 1 week, with antioxidant intervention, the lifespan can be extended 3-fold using powerful catalytic synthetic antioxidants such as EUK-189 (Melov et al., J Neurosci. 21(21):8348-53, 2001).
A single dose of the test agent is administered to the animals, either intraperitoneally or subcutaneously.

For data set [4], the system named is intracellular cystine (circulating white blood cells). The conditions noted are these: cited from earlier work.
Data set [5] concerns FRDA fibroblasts. The settings on record: preincubation prior to exposure to BSO; cited from earlier work.

Consider `NCCSSCCN` [Cystamine], for which, in data set [1], the “life (survival)” value was “prolong life” and the tremors result was “alleviate tremors”.

For the molecule `CC(=O)O.CCOc1cccc(C=NCCN=Cc2cccc(OCC)c2[O-])c1[O-].[Mn]` [EUK-189], the extension of lifespan in data set [2] is 3 fold.

For `NCCS` [cysteamine, Cysteamine (HS—CH2—CH2—NH2)], in data set [3] (initial experiment), the “weight gain compared to untreated animals” value is on record as “normal”. Besides, the survival analysis entry in data set [3] (preliminary experiment) is “inconclusive”. In data set [4] (delivery of cysteamine into the small intestine (WO 2007/089670)), the “time to observed decrease in leukocyte cystine” value is recorded as “within an hour”. Moreover, the “depletion of intracellular cystine” value in data set [4] (taken regularly, measured in circulating white blood cells) was “up to 90%”.

On to `COC1=C(OC)C(=O)C(CCCCCCCCCCO)=C(C)C1=O` [idebenone], for which the “protection from cell death” value in data set [5] was “protected cells from cell death”.

For the molecule vitamin E, the “protection from cell death” value in data set [5] is listed as “protected cells from cell death”.
